Like-named read-outs stand apart in the source and are kept apart here.
What was measured:
[1] = tested on: STAT3; experiment: HCS STAT3 assay; format: cell-based
[2] = tested on: Cal33 cells; experiment: Cal33 growth inhibition; format: cell-based
[3] = Table 2, read-out: STAT3 (IC50)
[4] = Table 2, read-out: Cal33 (IC50)
[5] = FIG. 3, read-out: STAT3 potency (IC50)
[6] = Table 1, read-out: STAT3 (mean IC50)
[7] = Homo sapiens, CAL-33, Table 1, read-out: Growth Inhibition Cal33 (mean IC50)
[8] = Homo sapiens, CAL-33, Table 2, read-out: Cal33 (IC50)

SMILES	IC50 [1, 3] [µM]	IC50 [1, 5] [µM]	IC50 [1, 6] [µM]	IC50 [2, 4] [µM]	IC50 [2, 7] [µM]	IC50 [2, 8] [µM]
CC1Sc2nnc(-c3cc(-c4ccccc4)n[nH]3)n2N=C1c1ccc(C(F)(F)F)cc1 (stereo not shown) [compound 10478]	35.9	–	–	50	–	–
COC(=O)Cn1nc(-c2nnc3n2N=C(c2ccc(OC)cc2)C(C)S3)c2c1CCC2 (stereo not shown) [compound 10437]	25.3	–	–	2.8	–	–
CC1Sc2nnc(-c3[nH]nc4c3CCC4)n2N=C1c1ccc(C(F)(F)F)cc1 (stereo not shown) [compound 10470]	24.4	–	–	1.4	–	–
COc1ccc(C2=Nn3c(nnc3-c3nn(CC(=O)OC(C)(C)C)c4c3CCC4)SC2C)cc1 (stereo not shown) [compound 10438]	34.1	–	–	49.6	–	–
Clc1ccc(C2=Nn3c(nnc3-c3[nH]nc4c3CCCC4)SC2)cc1 [UPCDC10084]	–	–	21.3	–	0.6	–
CC1Sc2nnc(-c3cc(-c4ccccc4)n[nH]3)n2N=C1c1ccccc1 (stereo not shown) [compound 10261]	12.3	–	–	40	–	–
COc1ccc(C2=Nn3c(nnc3-c3ccccc3)SC2C)cc1 (stereo not shown) [UPCDC10352]	27.6	–	27.6	–	0.21	0.21
COc1ccc(C2=Nn3c(nnc3-c3[nH]nc4c3CCCC4)SC2)cc1 [UPCDC10073]	–	–	17	–	0.2	–
CC1Sc2nnc(-c3nn(Cc4ccc(OC(F)(F)F)cc4)c4c3CCC4)n2N=C1c1ccc(Cl)c(Cl)c1 (stereo not shown) [compound 10477]	31	–	–	34.3	–	–
CC(C)CC1Sc2nnc(-c3[nH]nc4c3CCC4)n2N=C1c1ccc(Cl)c(Cl)c1 (racemic) [compound 10304]	27.1	–	–	3.5	–	–
CC(=O)n1nc(-c2nnc3n2N=C(c2ccc(Cl)c(Cl)c2)C(C)S3)c2c1CCC2 (stereo not shown) [compound 10458]	22.7	–	–	4.5	–	–
COc1ccc(C2=Nn3c(-c4cc(-c5ccccc5)n[nH]4)nnc3[S+]([O-])C2C)cc1 (stereo not shown) [compound 10534]	26.2	–	–	–	–	50
O=C(CC1Sc2nnc(-c3cc(-c4ccccc4)n[nH]3)n2N=C1c1ccccc1)N1CCCC1 (stereo not shown) [compound 10410]	37.3	–	–	43.5	–	–
Cc1ccc(C2=Nn3c(nnc3-c3[nH]nc4c3CCC4)SC2C)cc1 (stereo not shown) [compound 10472]	41.1	–	–	0.18	–	–
CC1Sc2nnc(-c3[nH]nc4c3CCC4)n2N=C1c1ccc(F)cc1 (racemic) [compound 10282]	27.7	–	–	31.3	–	–
COc1ccc(C2=Nn3c(nnc3C(C)C)SC2C)cc1 (stereo not shown) [UPCDC10332]	–	–	14.3	–	0.16	–
COCCC1Sc2nnc(-c3cc(-c4ccc(Cl)cc4)n[nH]3)n2N=C1c1ccc(OC)cc1 (stereo not shown) [compound 10373]	33.2	–	–	4.8	–	–
CC1(C)Sc2nnc(-c3cc(-c4ccccc4)n[nH]3)n2N=C1c1ccccc1 [compound 10264]	45.6	–	–	50	–	–

Further lines, with some results ahead:

IC50 [1, 3] [µM]	IC50 [1, 5] [µM]	IC50 [1, 6] [µM]	SMILES	IC50 [2, 4] [µM]	IC50 [2, 7] [µM]	IC50 [2, 8] [µM]
4.7	–	–	COc1ccc(C2=Nn3c(nnc3-c3cc(-c4ccccc4)nn3C)SC2C)cc1 (stereo not shown) [compound 10540]	1.3	–	–
19.5	–	–	COc1ccc(C2=Nn3c(nnc3-c3[nH]nc4c3CCC4)SC2Cc2ccccc2)cc1 (stereo not shown) [compound 10320]	0.83	–	–
7.5	< 10	–	Clc1ccc(C2=Nn3c(nnc3-c3[nH]nc4c3CCC4)SC2Cc2ccccc2)cc1Cl (stereo not shown) [compound 10308]	3.3	–	–
8.6	–	–	CC1Sc2nnc(-c3cc(-c4ccccc4)n[nH]3)n2N=C1c1ccc(F)c(F)c1 (stereo not shown) [compound 10532]	14.2	–	–
7.1	–	–	COc1cccc(C2=Nn3c(nnc3-c3cc(-c4ccccc4)n[nH]3)SC2C)c1 (stereo not shown) [compound 10475]	12.4	–	–
4.2	–	–	COc1ccc(C2=Nn3c(nnc3-c3cc(-c4ccc(F)cc4)n[nH]3)SC2C)cc1 (racemic) [compound 10204]	33	–	–
4.8	–	–	CC1Sc2nnc(-c3cc(-c4ccccc4)n(C)n3)n2N=C1c1ccc(Cl)c(Cl)c1 (stereo not shown) [compound 10543]	35	–	–
8.3	–	–	COc1ccc(C2=Nn3c(nnc3-c3cc(-c4ccccc4)n(C)n3)SC2C(C)C)cc1 (stereo not shown) [compound 10554]	19.1	–	–
7	–	–	COc1cccc(C2=Nn3c(nnc3-c3cc(-c4ccc(Cl)cc4)n[nH]3)SC2C)c1 (stereo not shown) [compound 10535]	6.3	–	–
8.8	< 10	–	CCN(CC)CCC1Sc2nnc(-c3cc(-c4ccccc4)n[nH]3)n2N=C1c1ccc(OC)cc1 (stereo not shown) [compound 10380]	3.7	–	–
8.5	–	–	COCCC1Sc2nnc(-c3cc(-c4ccc(F)cc4)n[nH]3)n2N=C1c1ccc(OC)cc1 (stereo not shown) [compound 10374]	14.4	–	–
9.1	–	–	COc1cccc(C2=Nn3c(nnc3-c3cc(-c4cccc(Cl)c4)n[nH]3)SC2C)c1 (stereo not shown) [compound 10536]	9.3	–	–
3.8	–	–	CC1Sc2nnc(-c3cc(-c4ccc(F)cc4)n[nH]3)n2N=C1c1ccccc1 (racemic) [compound 10135]	33.4	–	–
9.1	< 10	–	COc1ccc(C2=Nn3c(nnc3-c3cc(-c4ccccc4)n[nH]3)SC2CC(=O)N2CCCC2)cc1 (stereo not shown) [compound 10426]	20.5	–	–
5.1	< 10	5.14	COc1ccc(C2=Nn3c(nnc3-c3[nH]nc4c3CCC4)SC2CC(C)C)cc1 (stereo not shown) [UPCDC10305]	–	0.47	0.47
12.2	–	–	CC(C)C1Sc2nnc(-c3cc(-c4ccccc4)n(C)n3)n2N=C1c1ccccc1 (stereo not shown) [compound 10562]	50	–	–
7.9	–	–	COc1ccc(C2=Nn3c(nnc3-c3cc(-c4ccccc4)n(C(C)=O)n3)SC2C)cc1 (stereo not shown) [compound 10479]	38.1	–	–
5.7	–	–	CCN(CC)c1ccc(C2=Nn3c(nnc3-c3cc(-c4ccccc4)nn3C)SC2C)cc1 (stereo not shown) [compound 10559]	27.5	–	–
21.6	–	–	COc1ccc(C2=Nn3c(nnc3-c3cc(-c4ccccc4)n[nH]3)SC2C(C)C)cc1 (stereo not shown) [compound 10319]	20	–	–
11.6	–	–	COC(=O)CC1Sc2nnc(-c3cc(-c4ccccc4)n[nH]3)n2N=C1c1ccc(OC)cc1 (stereo not shown) [compound 10427]	34.5	–	–
6.6	–	–	CCN(CC)c1ccc(C2=Nn3c(nnc3-c3[nH]nc4c3CCC4)SC2C)cc1 (stereo not shown) [compound 10521]	1	–	–
7.6	–	–	COc1ccc(C2=Nn3c(nnc3-c3cc(-c4ccccc4)n[nH]3)SC2C)cc1 (stereo not shown) [compound 10511]	28	–	–
18.6	–	–	CC1(C)Sc2nnc(-c3[nH]nc4c3CCC4)n2N=C1c1ccc(Cl)c(Cl)c1 [compound 10283]	50	–	–
9.9	< 10	–	COc1ccc(C2=Nn3c(nnc3-c3cc(-c4ccccc4)n[nH]3)SC2CC(=O)N(C)C)cc1 (stereo not shown) [compound 10425]	29.3	–	–
6.3	–	–	COc1ccc(C2=Nn3c(nnc3-c3cc(-c4ccccc4)nn3C(C)=O)SC2C)cc1 (stereo not shown) [compound 10480]	30.4	–	–
8.8	–	8.78	COc1ccc(C2=Nn3c(nnc3-c3[nH]nc4c3CCC4)SC2C)cc1 (stereo not shown) [UPCDC10262]	–	0.18	0.18
7.6	–	–	COc1ccc(C2=Nn3c(nnc3-c3cc(-c4ccccc4)n[nH]3)SC2C)cc1OC (stereo not shown) [compound 10495]	13.1	–	–
14.1	–	–	Cc1ccc(C2=Nn3c(nnc3-c3cc(-c4ccccc4)n[nH]3)SC2C)cc1 (stereo not shown) [compound 10473]	12	–	–

Reference: patent publication US10618914B2 (UNIVERSITY OF PITTSBURGH—OF THE COMMONWEALTH SYSTEM OF …, priority 2015, dated 2020)
